Reference: patent US8957074B2 (Novartis AG, priority 2010, dated 2015)
pIC50: −log10 of the molar value. Like-named read-outs stand apart in the source and are kept apart here.

Assays:
CDK4/cyclin D1 = CDK4/cyclin D1 (Homo sapiens (Human), UniProt P11802); assay: CDK4/cyclin D1 enzymatic activity assay (TR-FRET, phosphorylation of pRb at Ser780); type: biochemical; conditions: 0.3 nM CDK4/cyclin D1, 150 nM biotin-pRb (773-924), 3 μM ATP, 60 min at 22° C.; read-out: Biochemical CDK4 enzyme IC50
Protocol: CDK4/Cyclin D1 Enzymatic Activity Assay
An assay for monitoring CDK4/cyclin D1-catalyzed phosphorylation of pRb at the Ser780 site was performed using TR-FRET in a 384-well format, and was used for IC50 determination and kinetic analysis. […] 3 μM ATP was added last to initiate the reaction. The reaction was quenched with 10 μL of 240 mM EDTA-Na (pH 8.0) after 60 min incubation at 22° C.
Human CDK4/cyclin D1 was expressed in Sf21 cells via baculovirus infection.

[1] = system: phosphorylation of pRb at the Ser780 site in JeKo-1 mantle cell lymphoma cells; assay: CDK4 cellular assay: ELISA of pRb phosphorylation at Ser780 in JeKo-1 cells; type: cell-based; conditions: Homo sapiens
Excerpt: Cell-based assay measuring phosphorylation levels of pRb at the Ser780 site using an enzyme-linked immunosorbent assay (ELISA) method (Table 6). JeKo-1, a mantle-cell lymphoma cell line, was selected for use in this assay due to its known translocation and subsequent overexpression of cyclin D1. [Ref: Amin, H. M.; McDonnell, T. J.; Medeiros, L. J.; Rassidakis, G. Z.; Leventaki, V.; O'Connor, S. L.; Keating, M. J.; Lai, R. Characterization of 4 mantle cell lymphoma cell lines—Establishment of an in vitro study model. Arch. Pathol. Lab.
Cells were allowed to adhere overnight. […] 10 μL of the dilution were then transferred to the cell culture plate, resulting in a final concentration range of 10 μM to 2 nM. The incubation was carried out at 37° C. with 5% CO2. All compounds were tested in triplicates at each concentration. […] The plates were placed at 4° C. with vigorous shaking for 5 min to lyse the cells. The resulting lysates contained approximately 1 μg/μL of protein.
Plates were incubated overnight at 4° C. with rocking. […] After shaking for 10 minutes, the Superblock solution was replaced with fresh Superblock and plates were incubated on a shaker for an additional 50 min. After blocking, 30 μL of JeKo-1 cell lysate, containing approximately 10 μg total protein, were added to wells in triplicate. […] For all incubation steps, plates were covered with Uniseal plate sealers. […] Next, 50 μL of a 1:2500 dilution of donkey-anti-rabbit HRP (Promega catalog no. W401B) in PBS/10% Superblock were added, and plates were incubated for 30 min at room temperature on a shaker. Plates were again washed as described above. […] After incubation, 50 μL 2 M sulfuric acid were added to plates to top the reaction, and absorbance was determined on a SpectraMax (Molecular Devices, Sunnydale, Calif.) within 15 minutes at 450 nm. All washes were performed using a Bio-Tek plate washer.
The Total Rb ELISA kit (Invitrogen catalog no. KH00011) was used to determine the levels of total pRb. This kit uses wells precoated with a proprietary total pRb antibody for capture. All reagents listed, with the exception of cell lysate, were included in the kit. The nature of the antibodies used for capture and detection was labeled as proprietary and not disclosed. 10 μg of cell lysate was loaded into the wells and volume adjusted to 50 μL with standard dilution buffer. Plates were sealed with film included in the kit and incubated for 2 h at room temperature on a shaker. Plates are then manually washed three times with 250 μL wash buffer. 50 μL of proprietary primary antibody (pre-conjugated to biotin) was added to wells and incubated for 1 h at room temperature on a shaker. Then plates were again washed as noted above. The secondary antibody (HRP pre-conjugated to Streptavidin) was diluted 1:100 in Streptavidin-HRP diluent buffer and 50 μL was added to each well. Plates were then incubated for 30 min. Afterwards, plates were washed four times with buffer as outlined above. Finally, 50 μL stabilized Chromogen was added per well and plates were incubated for 15 min, at which point 50 μL of stop solution was added. Plates were then read on a Spectramax at 450 nm.
The total pRb levels were then used to adjust the p-pRb % inhibition values to account for any loss of signal due to the absence of the pRb protein itself, and the IC50 values obtained from the adjusted % inhibitions represent normalized cellular p-pRb IC50.

CDK1/cyclin B = CDK1/cyclin B (Homo sapiens (Human), UniProt P06493); assay: CDK1/cyclin B enzymatic activity assay (IMAP-FP); type: biochemical
Chain of CDK1/cyclin B (P06493 whole entry, species assumed): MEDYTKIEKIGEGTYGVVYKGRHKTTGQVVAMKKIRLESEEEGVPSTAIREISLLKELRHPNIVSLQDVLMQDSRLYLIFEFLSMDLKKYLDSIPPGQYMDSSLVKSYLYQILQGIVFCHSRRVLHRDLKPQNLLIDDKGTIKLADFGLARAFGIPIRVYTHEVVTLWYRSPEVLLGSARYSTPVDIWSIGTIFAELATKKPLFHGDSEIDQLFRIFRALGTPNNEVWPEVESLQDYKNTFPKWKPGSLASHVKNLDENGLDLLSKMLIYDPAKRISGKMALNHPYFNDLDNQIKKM
Chain of CDK1/cyclin B (P14635 whole entry partner, species assumed): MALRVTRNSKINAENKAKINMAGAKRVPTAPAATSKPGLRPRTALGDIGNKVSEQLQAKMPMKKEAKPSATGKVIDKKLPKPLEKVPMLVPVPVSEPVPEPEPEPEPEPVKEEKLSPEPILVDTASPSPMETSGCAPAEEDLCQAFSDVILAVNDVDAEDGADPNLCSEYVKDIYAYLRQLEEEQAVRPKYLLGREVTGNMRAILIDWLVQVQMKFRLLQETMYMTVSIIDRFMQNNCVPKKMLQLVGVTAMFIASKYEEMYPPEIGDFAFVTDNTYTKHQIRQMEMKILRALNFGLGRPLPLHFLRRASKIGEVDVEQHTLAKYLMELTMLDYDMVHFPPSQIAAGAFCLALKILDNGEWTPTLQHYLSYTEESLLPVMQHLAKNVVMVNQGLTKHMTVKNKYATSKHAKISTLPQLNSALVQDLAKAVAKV
Excerpt: CDK1/Cyclin B Enzymatic Activity Assay
A 384-well microtiter IMAP-FP™ (Molecular Devices Trade Mark Technology) endpoint assay was used for CDK1/cyclin B kinase activity measurements. The same assay was used for IC50 determination of small molecule inhibitors.

[2] = JeKo-1 cells, p-pRb % inhibition adjusted with total pRb levels, read-out: Normalized cellular ppRb inhibition IC50
[3] = JeKo-1 cells, p-pRb Ser780 ELISA, non-normalized, read-out: Cellular ppRb inhibition IC50
[4] = […] CDK1/cyclin B, 100 nM Tamra Histone-H1 peptide, 20 μM ATP, 120 min at room temperature, read-out: Biochemical CDK1 enzyme IC50
[5] = JeKo-1, JeKo-1 cells, p-pRb % inhibition adjusted with total pRb levels, read-out: Normalized cellular ppRb inhibition IC50
[6] = JeKo-1, JeKo-1 cells, p-pRb Ser780 ELISA, non-normalized, read-out: Cellular ppRb inhibition IC50

Chain of CDK4/cyclin D1 (P11802 whole entry): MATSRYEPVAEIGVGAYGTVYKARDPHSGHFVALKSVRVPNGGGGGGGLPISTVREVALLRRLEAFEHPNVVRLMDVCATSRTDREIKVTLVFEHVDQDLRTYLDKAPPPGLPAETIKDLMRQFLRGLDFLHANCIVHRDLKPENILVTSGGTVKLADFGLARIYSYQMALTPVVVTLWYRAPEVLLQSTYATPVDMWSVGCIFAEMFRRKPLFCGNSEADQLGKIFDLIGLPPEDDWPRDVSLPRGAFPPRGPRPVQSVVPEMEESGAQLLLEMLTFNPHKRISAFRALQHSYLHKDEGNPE
Chain of CDK4/cyclin D1 (P24385 whole entry partner): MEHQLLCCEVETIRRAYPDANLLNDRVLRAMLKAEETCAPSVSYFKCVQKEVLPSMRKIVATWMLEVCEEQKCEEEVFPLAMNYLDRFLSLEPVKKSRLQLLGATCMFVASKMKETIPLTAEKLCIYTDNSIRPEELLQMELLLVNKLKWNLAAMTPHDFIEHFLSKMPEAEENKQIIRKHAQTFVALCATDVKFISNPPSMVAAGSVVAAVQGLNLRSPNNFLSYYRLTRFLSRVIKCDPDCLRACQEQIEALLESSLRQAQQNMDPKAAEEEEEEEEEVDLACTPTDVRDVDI

| SMILES | pIC50 (CDK4/cyclin D1) | pIC50 [1, 2] | pIC50 [1, 3] | pIC50 (CDK1/cyclin B; [4]) | further results |
| --- | --- | --- | --- | --- | --- |
| CN1CCCC2(CC1)CN(c1ccc(Nc3ncc4cc(C(=O)N(C)C)n(C5CCCC5)c4n3)nc1)C(=O)O2 (stereo not shown) [Example 104, 7-Cyclopentyl-2-[5-(8-methyl-2-oxo-1-oxa-3,8-diaza-spiro[4.6]undec-3-yl)-pyridin-2-ylamino]-7H-pyrrolo[2,3-d]pyrimidine-6-carboxylic acid dimethylamide] | 7.70 | 7.19 | 7.54 | < 4.82 | – |
| CN(C)C(=O)c1cc2cnc(Nc3ccc(C(=O)N4CC5CCC(C4)O5)cn3)nc2n1C1CCCC1 [Example 74, 7-Cyclopentyl-2-[5-(8-oxa-3-aza-bicyclo[3.2.1]octane-3-carbonyl)-pyridin-2-ylamino]-7H-pyrrolo[2,3-d]pyrimidine-6-carboxylic acid dimethylamide] | 7.17 | – | – | – | pIC50 [1, 5]: 6.59; pIC50 [1, 6]: 6.82; pIC50 (CDK1/cyclin B; 0.25 nM CDK1/cyclin B, 100 nM Tamra Histone-H1 peptide, 20 μM ATP, 120 min at room temperature, read-out: Biochemical CDK1 enzyme IC50): < 4.82 |
| CN(C)C(=O)c1cc2cnc(Nc3ccc(C(=O)N4CC5CCC(C4)N5)cn3)nc2n1C1C[C@H]2CC[C@@H]1C2 (stereo partly drawn) [Example 76, 7-(1R,2R,4S)-Bicyclo[2.2.1]hept-2-yl-2-[5-(3,8-diaza-bicyclo[3.2.1]octane-3-carbonyl)-pyridin-2-ylamino]-7H-pyrrolo[2,3-d]pyrimidine-6-carboxylic acid dimethylamide] | 7.68 | – | – | – | pIC50 [1, 5]: 6.67; pIC50 [1, 6]: 6.80; pIC50 (CDK1/cyclin B): < 4.82 |
| CN(C)C(=O)c1cc2cnc(Nc3ccc(N4CCN5CCCC5C4)cn3)nc2n1C1CCCC1 (stereo not shown) [Example 116, 7-cyclopentyl-2-(5-(hexahydropyrrolo[1,2-a]pyrazin-2(1H)-yl)pyridin-2-ylamino)-N,N-dimethyl-7H-pyrrolo[2,3-d]pyrimidine-6-carboxamide] | 6.96 | – | – | < 4.82 | pIC50 ([1]; JeKo-1, read-out: Cellular ppRb inhibition IC50): 6.22; pIC50 ([1]; JeKo-1, read-out: Normalized cellular ppRb inhibition IC50): 6.22 |
| CN(C)C(=O)c1cc2cnc(Nc3ccc(C(=O)N4CC5CCC(C4)C5N(C)C)cn3)nc2n1C1CCCC1 (stereo not shown) [Example 34, 7-cyclopentyl-2-(5-(8-(dimethylamino)-3-azabicyclo[3.2.1]octane-3-carbonyl)pyridin-2-ylamino)-N,N-dimethyl-7H-pyrrolo[2,3-d]pyrimidine-6-carboxamide] | 7.66 | 6.85 | 7.12 | < 4.82 | – |
| CN(C)C(=O)c1cc2cnc(Nc3ccc(N4CC5CCC(C4)N5)cn3)nc2n1C1CCCC1 [Example 112, 7-Cyclopentyl-2-[5-(3,8-diaza-bicyclo[3.2.1]oct-3-yl)pyridin-2-ylamino]-7H-pyrrolo[2,3-d]pyrimidine-6-carboxylic acid dimethylamide] | 7.47 to 7.96 | 6.64 | 7.04 | < 4.82 | – |
| CN(C)C(=O)c1cc2cnc(Nc3ccc(N4CC5(CC4=O)CC4CCC(C5)N4)cn3)nc2n1C1CCCC1 (stereo not shown) [Example 118, 7-cyclopentyl-N,N-dimethyl-2-(5-(5′-oxo-8-azaspiro[bicyclo[3.2.1]octane-3,3′-pyrrolidine]-1′-yl)pyridin-2-ylamino)-7H-pyrrolo[2,3-d]pyrimidine-6-carboxamide] | 7.85 to 8.30 | 6.82 to 7.33 | 6.83 to 7.47 | < 4.82 | – |
| CN(C)C(=O)c1cc2cnc(Nc3ccc(N4CC5CCC(CC4=O)N5)cn3)nc2n1-c1ccc(C(C)(C)C#N)cc1 (stereo not shown) [Example 127, 7-(4-(2-cyanopropan-2-yl)phenyl)-N,N-dimethyl-2-(5-(4-oxo-3,9-diazabicyclo[4.2.1]nonan-3-yl)pyridin-2-ylamino)-7H-pyrrolo[2,3-d]pyrimidine-6-carboxamide] | – | 5.82 to 6.61 | 6.04 to 6.92 | – | – |
| CN(C)C(=O)c1cc2cnc(Nc3ccc(C(=O)N4CC5CCC(C4)N5)cn3)nc2n1C1CCN(C2CC2)CC1 [Example 56, 7-(1-cyclopropyl-piperidin-4-yl)-2-[5-(3,8-diaza-bicyclo[3.2.1]octane-3-carbonyl)-pyridin-2-ylamino]-7H-pyrrolo[2,3-d]pyrimidine-6-carboxylic acid dimethylamide] | – | – | – | – | pIC50 [1, 5]: 6.33; pIC50 [1, 6]: 6.40 |
| CN(C)C(=O)c1cc2cnc(Nc3ccc(C(=O)N4CC[C@@H]5CC[C@H](C4)N5)cn3)nc2n1C1CCCC1 [Example 72, 7-cyclopentyl-2-[5-((1R,6S)-3,9-diaza-bicyclo[4.2.1]nonane-3-carbonyl)-pyridin-2-ylamino]-7H-pyrrolo[2,3-d]pyrimidine-6-carboxylic acid dimethylamide] | 7.89 | 6.95 | 7.32 | – | – |
| CN(C)C(=O)c1cc2cnc(Nc3ccc(C(=O)N4CC[C@H]5CC[C@@H](C4)N5)cn3)nc2n1C1CCCC1 [Example 71, 7-Cyclopentyl-2-[5-((1S,6R)-3,9-diaza-bicyclo[4.2.1]nonane-3-carbonyl)-pyridin-2-ylamino]-7H-pyrrolo[2,3-d]pyrimidine-6-carboxylic acid dimethylamide] | 8.22 to 8.30 | 7.25 | 7.51 | – | – |
| CN(C)C(=O)c1cc2cnc(Nc3ccc(N4CCC5(CCCN5)C4=O)cn3)nc2n1C1CCCC1 (stereo not shown) [Example 113, 7-Cyclopentyl-2-[5-(6-oxo-1,7-diaza-spiro[4,4]non-7-yl)-pyridin-2-ylamino]-7H-pyrrolo[2,3-d]pyrimidin-6-carboxylic acid dimethylamide] | 7.68 to 7.77 | – | – | – | pIC50 [1, 5]: 6.61 to 6.69; pIC50 [1, 6]: 6.69 to 6.75 |
| CN(C)C(=O)c1cc2cnc(Nc3ccc(C(=O)N4CCC5CCC(C4)N5)cn3)nc2n1C1CCCC1 (racemic) [Example 69, 7-Cyclopentyl-2-[5-(3,9-diaza-bicyclo[4.2.1]nonane-3-carbonyl)-pyridin-2-ylamino]-7H-pyrrolo[2,3-d]pyrimidine-6-carboxylic acid dimethylamide] | 7.74 to 8.30 | 7.32 | 7.62 | – | – |
| CN(C)C(=O)c1cc2cnc(Nc3ccc(C(=O)N4CC5CCC(C4)N5)cn3)nc2n1C1CCC1 [Example 55, 7-Cyclobutyl-2-[5-(3,8-diaza-bicyclo[3.2.1]octane-3-carbonyl)-pyridin-2-ylamino]-7H-pyrrolo[2,3-d]pyrimidine-6-carboxylic acid dimethylamide] | – | 6.79 to 7.46 | 6.95 to 7.51 | – | – |
| CN(C)C(=O)c1cc2cnc(Nc3ccc(C(=O)N4CC5CCCC(C4)N5)cn3)nc2n1C1CCCC1 [Example 52, 7-Cyclopentyl-2-[5-(3,9-diaza-bicyclo[3.3.1]nonane-3-carbonyl)-pyridin-2-ylamino]-7H-pyrrolo[2,3-d]pyrimidine-6-carboxylic acid dimethylamide] | 7.57 | 7.28 to 7.35 | 7.33 to 7.68 | – | – |
